From ChEMBL document CHEMBL4118231, “Pyrroloquinoline scaffold-based 5-HT6R ligands: Synthesis, quantum chemical and molecular dynamic studies, and influence of nitrogen atom position in the scaffold on affinity” (Bioorg Med Chem, 2018) come the findings set out here.

Each structure is given as a SMILES string.

In the assay the target is 5-hydroxytryptamine receptor 6 (Homo sapiens, UniProt P50406). Put plainly: Displacement of [3H]LSD from human 5-HT6R expressed in HEK293 cell membranes after 1 hr by microbeta counting method. For orientation: Loss of bound radioactivity is the signal in a displacement assay; it reports binding, not function.
Sequence of 5-hydroxytryptamine receptor 6 (P50406 whole entry): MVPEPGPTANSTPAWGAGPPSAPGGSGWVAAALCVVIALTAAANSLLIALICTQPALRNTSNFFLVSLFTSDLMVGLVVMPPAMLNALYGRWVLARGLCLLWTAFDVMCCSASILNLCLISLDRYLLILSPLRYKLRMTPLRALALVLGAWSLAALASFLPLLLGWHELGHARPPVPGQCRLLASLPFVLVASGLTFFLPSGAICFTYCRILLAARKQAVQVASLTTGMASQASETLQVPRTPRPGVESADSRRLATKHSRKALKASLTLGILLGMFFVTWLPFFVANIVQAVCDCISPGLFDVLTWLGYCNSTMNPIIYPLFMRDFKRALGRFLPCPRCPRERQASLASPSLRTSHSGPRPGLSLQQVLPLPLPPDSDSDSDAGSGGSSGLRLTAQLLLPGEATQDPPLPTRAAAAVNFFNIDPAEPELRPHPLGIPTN
In turn, `O=S(=O)(c1cccc(Br)c1)n1cc(C2=CCNCC2)c2ccc3ncccc3c21` yielded a Ki of 137 nM. The same measure for `O=S(=O)(c1cccc(Cl)c1)n1cc(C2=CCNCC2)c2ccc3cccnc3c21`: 49 nM; for `O=S(=O)(c1cccc(Cl)c1)n1cc(C2=CCNCC2)c2ccc3ncccc3c21`: 427 nM; for `O=S(=O)(c1ccccc1)n1cc(C2=CCNCC2)c2ccc3cccnc3c21`: 131 nM. As to `O=S(=O)(c1ccccc1)n1cc(C2=CCNCC2)c2ccc3ncccc3c21`, the Ki stood at 711 nM. The same measure for `O=S(=O)(c1cccc(F)c1)n1cc(C2=CCNCC2)c2ccc3ncccc3c21`: 365 nM. Next, `O=S(=O)(c1cccc(F)c1)n1cc(C2=CCNCC2)c2ccc3cccnc3c21`: 45 nM; `O=S(=O)(c1cccc(Br)c1)n1cc(C2=CCNCC2)c2ccc3cccnc3c21`: 61 nM. The same measure for `Clc1cccc(Cn2cc(C3=CCNCC3)c3ccc4cccnc4c32)c1`: 269 nM.

For orientation: Ki means the dissociation constant of the complex between target and ligand, obtained from inhibition or displacement.
